Here are results for 20 molecules from patent publication US12060385B2, “Compounds for RNA capping and uses thereof” (GUANGZHOU HENOVCOM BIOSCIENCE CO., LTD., priority 2022, dated 2024).

Structures are written as SMILES.

For the first assay, the target named is T7 RNA Polymerase (Escherichia phage T7, UniProt P00573).
Sequence of T7 RNA Polymerase (P00573 whole entry): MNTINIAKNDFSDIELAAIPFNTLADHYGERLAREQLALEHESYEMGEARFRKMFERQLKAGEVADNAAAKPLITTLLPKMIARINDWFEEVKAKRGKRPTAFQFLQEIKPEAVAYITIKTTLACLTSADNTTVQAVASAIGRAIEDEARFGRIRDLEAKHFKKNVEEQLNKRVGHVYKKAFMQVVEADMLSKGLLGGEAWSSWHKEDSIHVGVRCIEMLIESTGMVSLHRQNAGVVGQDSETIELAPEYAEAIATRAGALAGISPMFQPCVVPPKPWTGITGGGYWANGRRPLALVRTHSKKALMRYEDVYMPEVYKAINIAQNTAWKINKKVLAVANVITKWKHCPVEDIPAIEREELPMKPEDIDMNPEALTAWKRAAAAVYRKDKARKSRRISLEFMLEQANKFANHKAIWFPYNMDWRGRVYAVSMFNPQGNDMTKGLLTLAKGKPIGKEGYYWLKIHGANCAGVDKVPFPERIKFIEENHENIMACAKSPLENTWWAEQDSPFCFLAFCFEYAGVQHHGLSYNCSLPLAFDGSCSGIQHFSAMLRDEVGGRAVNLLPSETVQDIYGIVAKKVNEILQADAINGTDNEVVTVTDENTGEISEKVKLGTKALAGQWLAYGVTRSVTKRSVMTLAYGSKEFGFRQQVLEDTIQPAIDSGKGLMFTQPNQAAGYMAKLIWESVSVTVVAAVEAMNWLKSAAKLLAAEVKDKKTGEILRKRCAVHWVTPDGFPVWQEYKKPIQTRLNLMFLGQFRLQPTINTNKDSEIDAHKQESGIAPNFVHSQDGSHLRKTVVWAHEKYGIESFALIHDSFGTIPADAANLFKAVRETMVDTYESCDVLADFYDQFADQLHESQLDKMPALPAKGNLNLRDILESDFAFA
Assay: not given
In kind it is biochemical. Conditions: 20 μL transcription system, Cap1 Analog 4 mM, 37° C. 2 to 3 hours. The protocol: • 1) A plasmid was linearized and the DNA template was purified. • 2) mRNA was synthesized in vitro with 51 types of capping structures of the present disclosure, or without any cap analogues. CleanCap®AG (3′OMe) (Trilink, N-7413) was applied as positive control group, uncapped mRNA was negative control group, and DNAase/RNase-Free water was a blank control group.
The system was incubated for 2 to 3 hours at 37° C. and digested by TURBO DNase for 15 min LiCl was used to precipitate mRNA for at least 30 min, or overnight, mRNA precipitates were then washed with 75% ethanol. After ethanol was quickly volatilized, mRNA was re-solubilized with RNase-Free water. • 3) The transcribed products were purified and the transcription yields were calculated.
`CO[C@@H]1[C@H](OP(=O)([O-])OC[C@H]2O[C@@H](n3cnc4c(=O)[nH]c(N)nc43)[C@H](O)[C@@H]2O)[C@@H](COP(=O)(O)OP(=O)(O)OP(=O)(O)OC[C@H]2OC(n3c[n+](C)c4c(=O)[nH]c(N)nc43)[C@H](O)[C@@H]2CC(=O)N(C)C)O[C@H]1n1cnc2c(N)ncnc21` (stereo partly drawn) [Compound 4]: the “Final product mass obtained from the 20 μL of mRNA transcription system” value (“Final product mass obtained” for short) was 78 µg.

For the molecule `CO[C@@H]1[C@H](OP(=O)([O-])OC[C@H]2O[C@@H](n3cnc4c(=O)[nH]c(N)nc43)[C@H](O)[C@@H]2O)[C@@H](COP(=O)(O)OP(=O)(O)OP(=O)(O)OC[C@H]2O[C@@H](n3c[n+](C)c4c(=O)[nH]c(N)nc43)[C@H](O)[C@@H]2CNC=O)O[C@H]1n1cnc2c(N)ncnc21` [Compound 299], the “Final product mass obtained” value was determined as 105 µg.

Regarding `CCCCC(=O)NC[C@H]1[C@@H](O)[C@H](n2c[n+](C)c3c(=O)[nH]c(N)nc32)O[C@@H]1COP(=O)(O)OP(=O)(O)OP(=O)(O)OC[C@H]1O[C@@H](n2cnc3c(N)ncnc32)[C@H](OC)[C@@H]1OP(=O)(O)OC[C@H]1O[C@@H](n2cnc3c(=O)[nH]c(N)nc32)[C@H](O)[C@@H]1O` [Compound 305], the “Final product mass obtained” value is 92 µg.

On to `CO[C@@H]1[C@H](OP(=O)([O-])OC[C@H]2O[C@@H](n3cnc4c(=O)[nH]c(N)nc43)[C@H](O)[C@@H]2O)[C@@H](COP(=O)(O)OP(=O)(O)OP(=O)(O)OC[C@H]2O[C@@H](n3c[n+](C)c4c(=O)[nH]c(N)nc43)[C@H](O)[C@@H]2CNC(=O)c2ccccc2)O[C@H]1n1cnc2c(N)ncnc21` [Compound 309], for which the “Final product mass obtained” value was found to be 112 µg.

Regarding `CO[C@@H]1[C@H](OP(=O)([O-])OC[C@H]2O[C@@H](n3cnc4c(=O)[nH]c(N)nc43)[C@H](O)[C@@H]2O)[C@@H](COP(=O)(O)OP(=O)(O)OP(=O)(O)OC[C@H]2O[C@@H](n3c[n+](C)c4c(=O)[nH]c(N)nc43)[C@H](O)[C@@H]2CNS(C)(=O)=O)O[C@H]1n1cnc2c(N)ncnc21` [Compound 311], the “Final product mass obtained” value came out at 88 µg.

Regarding `CO[C@@H]1[C@H](OP(=O)(O)OC[C@H]2O[C@@H](n3cnc4c(=O)[nH]c(N)nc43)[C@H](O)[C@@H]2O)[C@@H](COP(=O)(O)OP(=O)(O)OP(=O)(O)OC[C@H]2O[C@@H](n3c[n+](C)c4c(=O)[nH]c(N)nc43)[C@H](O)[C@@H]2CCNC(C)=O)O[C@H]1n1cnc2c(N)ncnc21` [Compound 319], the “Final product mass obtained” value was determined as 102 µg.

For `COC(=O)NC[C@H]1[C@@H](O)[C@H](n2c[n+](C)c3c(=O)[nH]c(N)nc32)O[C@@H]1COP(=O)(O)OP(=O)(O)OP(=O)(O)OC[C@H]1O[C@@H](n2cnc3c(N)ncnc32)[C@H](OC)[C@@H]1OP(=O)(O)OC[C@H]1O[C@@H](n2cnc3c(=O)[nH]c(N)nc32)[C@H](O)[C@@H]1O` [Compound 323], the “Final product mass obtained” value worked out at 114 µg.

Consider `CO[C@@H]1[C@H](OP(=O)(O)OC[C@H]2O[C@@H](n3cnc4c(=O)[nH]c(N)nc43)[C@H](O)[C@@H]2O)[C@@H](COP(=O)(O)CP(=O)(O)OP(=O)(O)OC[C@H]2O[C@@H](n3c[n+](C)c4c(=O)[nH]c(N)nc43)[C@H](O)[C@@H]2CNC(C)=O)O[C@H]1n1cnc2c(N)ncnc21` [Compound 329], for which the “Final product mass obtained” value turned out to be 110 µg.

On to `CNC(=O)C[C@H]1[C@@H](O)[C@H](n2c[n+](C)c3c(=O)[nH]c(N)nc32)O[C@@H]1COP(=O)(O)OP(=O)(O)OP(=O)(O)OC[C@H]1O[C@@H](n2cnc3c(N)ncnc32)[C@H](OC)[C@@H]1OP(=O)(O)OC[C@H]1O[C@@H](n2ccc(=O)[nH]c2=O)[C@H](O)[C@@H]1O` [Compound 394], for which the “Final product mass obtained” value amounted to 107 µg.

In the case of `CNC(=O)CC[C@H]1[C@@H](O)[C@H](n2c[n+](C)c3c(=O)[nH]c(N)nc32)O[C@@H]1COP(=O)(O)OP(=O)(O)OP(=O)(O)OC[C@H]1O[C@@H](n2cnc3c(N)ncnc32)[C@H](OC)[C@@H]1OP(=O)(O)OC[C@H]1O[C@@H](n2cnc3c(=O)[nH]c(N)nc32)[C@H](O)[C@@H]1O` [Compound 415], the “Final product mass obtained” value turned out to be 108 µg.

In the case of `CO[C@@H]1[C@H](OP(=O)(O)OC[C@H]2O[C@@H](n3cnc4c(=O)[nH]c(N)nc43)[C@H](O)[C@@H]2O)[C@@H](COP(=O)(O)CP(=O)(O)OP(=O)(O)OC[C@H]2O[C@@H](n3c[n+](C)c4c(=O)[nH]c(N)nc43)[C@H](O)[C@@H]2CC(=O)N(C)C)O[C@H]1n1cnc2c(N)ncnc21` [Compound 421], the “Final product mass obtained” value stood at 98 µg.

On to `CO[C@@H]1[C@H](OP(=O)(O)OC[C@H]2O[C@@H](n3cnc4c(=O)[nH]c(N)nc43)[C@H](O)[C@@H]2O)[C@@H](COP(=O)(O)OP(=O)(O)OP(=O)(O)OP(=O)(O)OC[C@H]2O[C@@H](n3c[n+](C)c4c(=O)[nH]c(N)nc43)[C@H](O)[C@@H]2CC(=O)N(C)C)O[C@H]1n1cnc2c(N)ncnc21` [Compound 437], for which the “Final product mass obtained” value worked out at 114 µg.

Take `CO[C@@H]1[C@H](OP(=O)([O-])OC[C@H]2O[C@@H](n3cnc4c(=O)[nH]c(N)nc43)[C@H](O)[C@@H]2O)[C@@H](CSP(=O)(O)OP(=O)(O)OP(=O)(O)OC[C@H]2O[C@@H](n3c[n+](C)c4c(=O)[nH]c(N)nc43)[C@H](O)[C@@H]2CNC(C)=O)O[C@H]1n1cnc2c(N)ncnc21` [Compound 561]: the “Final product mass obtained” value worked out at 108 µg.

For `CNC(=O)OC[C@H]1[C@@H](O)[C@H](n2c[n+](C)c3c(=O)[nH]c(N)nc32)O[C@@H]1COP(=O)(O)OP(=O)(O)OP(=O)(O)OC[C@H]1O[C@@H](n2cnc3c(N)ncnc32)[C@H](OC)[C@@H]1OP(=O)([O-])OC[C@H]1O[C@@H](n2cnc3c(=O)[nH]c(N)nc32)[C@H](O)[C@@H]1O` [Compound 631], the “Final product mass obtained” value is 105 µg.

Consider `CO[C@@H]1[C@H](OP(=O)([O-])OC[C@H]2O[C@@H](n3cnc4c(=O)[nH]c(N)nc43)[C@H](O)[C@@H]2O)[C@@H](COP(=O)(O)OP(=O)(O)OP(=O)(O)OC[C@H]2O[C@@H](n3c[n+](C)c4c(=O)[nH]c(N)nc43)[C@H](O)[C@@H]2CN=[N+]=[N-])O[C@H]1n1cnc2c(N)ncnc21` [Compound 635], for which the “Final product mass obtained” value is 118 µg.

On to `COC[C@H]1[C@@H](OC)[C@H](n2c[n+](C)c3c(=O)[nH]c(N)nc32)O[C@@H]1COP(=O)(O)OP(=O)(O)OP(=O)(O)OC[C@H]1O[C@@H](n2cnc3c(N)ncnc32)[C@H](OC)[C@@H]1OP(=O)(O)OC[C@H]1O[C@@H](n2cnc3c(=O)[nH]c(N)nc32)[C@H](O)[C@@H]1O` [Compound 637], for which the “Final product mass obtained” value amounted to 88 µg.

Regarding `CO[C@@H]1[C@H](OP(=O)(O)OC[C@H]2O[C@@H](n3cnc4c(=O)[nH]c(N)nc43)[C@H](O)[C@@H]2O)[C@@H](COP(=O)(O)OP(=O)(O)OP(=O)(O)OC[C@H]2O[C@@H](n3c[n+](C)c4c(=O)[nH]c(N)nc43)[C@H](O)[C@@H]2CNC(=O)N(C)C)O[C@H]1n1cnc2c(N)ncnc21` [Compound 639], the “Final product mass obtained” value turned out to be 94 µg.

Consider `CO[C@@H]1[C@H](CNC(C)=O)[C@@H](COP(=O)(O)OP(=O)(O)OP(=O)(O)OC[C@H]2O[C@@H](n3cnc4c(N)ncnc43)[C@H](OC)[C@@H]2OP(=O)(O)OC[C@H]2O[C@@H](n3cnc4c(=O)[nH]c(N)nc43)[C@H](O)[C@@H]2O)O[C@H]1n1c[n+](C)c2c(=O)[nH]c(N)nc21` [Compound 641], for which the “Final product mass obtained” value turned out to be 89 µg.

On to `CCCCCCNC(=O)C[C@H]1[C@@H](O)[C@H](n2c[n+](C)c3c(=O)[nH]c(N)nc32)O[C@@H]1COP(=O)(O)OP(=O)(O)OP(=O)(O)OC[C@H]1O[C@@H](n2cnc3c(N)ncnc32)[C@H](OC)[C@@H]1OP(=O)([O-])OC[C@H]1O[C@@H](n2cnc3c(=O)[nH]c(N)nc32)[C@H](O)[C@@H]1O` [Compound 643], for which the “Final product mass obtained” value was 121 µg.

For the molecule `CNC(=O)C[C@H]1[C@@H](OC)[C@H](n2c[n+](C)c3c(=O)[nH]c(N)nc32)O[C@@H]1COP(=O)(O)OP(=O)(O)OP(=O)(O)OC[C@H]1O[C@@H](n2cnc3c(N)ncnc32)[C@H](OC)[C@@H]1OP(=O)(O)OC[C@H]1O[C@@H](n2cnc3c(=O)[nH]c(N)nc32)[C@H](O)[C@@H]1O` [Compound 645], the “Final product mass obtained” value came out at 116 µg.

The test system of the next assay is mRNA. Description: Capping efficiency of mRNA with different cap analogs by LC-MS. The class given is biochemical. Conditions: LC-MS after RNase H cleavage. On the procedure: In a PCR machine, the annealing was performed using the following gradients: • 95° C. for 5 min; 65° C. for 2 min; 55° C. for 2 min; 40° C. for 2 min; 22° C. for 2 min • 5) Pre-treatment of magnetic beads were bound with probes.
100 μL of magnetic beads were placed on a magnetic rack and the preservation solution was removed. 100 μL of 1*BW solution was added, mixed well, and placed on the magnetic rack, and the supernatant was then removed. The washing step was repeated three times. 100 μL of wash A buffer was added, mixed well, and placed on the magnetic rack, and the supernatant was then removed. The washing step was repeated three times. 100 μL of wash B buffer was added, mixed well, and placed on the magnetic rack, and the supernatant was then removed. The washing step was repeated three times. After 120 μL of sample was added, the sample and the magnetic beads solution were incubated for 30 min at room temperature, and they were gently mixed well while incubation. • 6) mRNA was spliced to obtain 5′ end mRNA single stranded sequence and binding with the probe.
20 μL of RNase H (5 U/mL) was added, incubated for 3 hours at 37° C., mixed once every half an hour. 100 μL of 1*BW solution was added, mixed well, and placed on the magnetic rack, and then the supernatant was removed. The washing step was repeated three times. Subsequently, 100 μL of deionized aqueous solution was added, mixed well, and placed on the magnetic rack, and the supernatant was then removed. The washing step was repeated three times. 100 μL of 75% methanol at 80° C. was added, and the mixture was incubated at 80° C. on a heater plate for 3 min, and placed on the magnetic rack, and the supernatant was then pipetted. The sample was dried using an evaporative centrifuge at room temperature for 45 min to 10 μL, and then resuspended in 50 μL of 100 μM EDTA solution in 1% MeOH for LC-MS analysis.
The capping efficiencies of mRNA with different cap analogs were determined by LC-MS, and some compounds of the results were shown in Table 4.
On to `CO[C@@H]1[C@H](OP(=O)([O-])OC[C@H]2O[C@@H](n3cnc4c(=O)[nH]c(N)nc43)[C@H](O)[C@@H]2O)[C@@H](COP(=O)(O)OP(=O)(O)OP(=O)(O)OC[C@H]2OC(n3c[n+](C)c4c(=O)[nH]c(N)nc43)[C@H](O)[C@@H]2CC(=O)N(C)C)O[C@H]1n1cnc2c(N)ncnc21` (stereo partly drawn) [Compound 4], for which the Capping efficiency entry is recorded as “A (100% > A ≥ 95%)”.
